# According to patent publication US20120035180A1, “PHARMACEUTICAL COMPOSITION FOR TREATING CANCER COMPRISING CHLORIN E6-FOLIC ACID CONJUGATE COMPOUND AND CHITOSAN” (priority 2009, published 2012):
# Tests used:
# [1] = tested on: transporter of restored vectors (TRV); details: cited from earlier work
# Hela cells [2] = assay: Accumulation in Hela cells; assay type: cell-based; details: 2×10^−7 M/l, 37° C.
# Description: The cellular accumulation and the targeted delivery of the photoactive compounds were investigated using Hela cells, which is one of the numerous tumor cell types that overexpress folate receptors.
# Cells were cultivated for 3 days in medium 199, and transferred to Hank's solution/medium 199 (9/1). After 3 hours, the cell were collected by trypsin treatment from the substrate and placed in Hank's solution (10^5 κπ/ml). To cell suspensions, chlorin e6 conjugates were added at a concentration of 2×10^−7 M/l, and incubated at 37° C. After 1, 5, 10, 15, and 24 hours, the samples were centrifuged, the pellet was washed with the cooled Hank's solution, and transferred to Hank's solution at a concentration being equal to that in the initial suspension.
# HeLa tumor cells = assay: Cytotoxicity (antiproliferative assay) in the absence of light exposure; assay type: cell-based; details: 24 hr incubation
# Description: Cytotoxicity was analyzed, considering the intensity of proliferative processes in cells, photosensitizer concentration, and dose of optical power. For each point, 3 flasks with cell monolayer were used.
# The monolayer culture of HeLa tumor cells was chosen and used as the cell.
# The culture of HeLa tumor cells was grown in nutrient medium 199 or in nutrient medium containing hemohydrolyzate supplemented with 10% fetal bovine serum and […] of kanamycin.
# On day 4 after the cell culture was inoculated in the flasks (100,000 cells per 2.0 ml of nutrient medium), the photosensitizer was added at a concentration of 1, 2.5, 5.0, 10.0, 20.0, or 30.0 mg/ml.
# Flasks with light-protective cover (dark cytotoxicity) were incubated at 37.5° C. for 1 hour. The cells were washed with Hank's solution 4 times. 2.0 ml of fresh nutrient medium were added, and the cells were irradiated at the temperature of melting ice for 5, 10, 15 or 20 mins by the light flux of a “METALAZ” laser medical device (wavelength: 627.8 nm, 578.2 or 510.6 nm) or “LD 680-2000” (wavelength: 670-690 nm), depending on the wavelength of maximum spectral absorption of the studied photosensitizer, at a dose of 40 J/cm^2. After 20-24 hours, the number of tumor cell was counted in Goriaev's chamber.
# HeLa cell culture = assay: Phototoxicity (photodynamic activity), 3.5 h incubation, 3.3 joule/cm^2; assay type: cell-based; design: number of HELA cells (relative to the control): unit not given here; details: incubation 3.5 hours
# Description: To examine the photodynamic effects of a photosensitizer on a HeLa cell culture, the photosensitizer solution was added to the nutrient media at a final concentration of 0.1, 0.5, 1.0, 5.0 or 10 mcg/ml on day 3 after transplanting the cell culture into flasks. The flasks were wrapped with a light protecting cover, and incubated at 37° C. for 3.5 hours. Then, the cells were washed with Hank's solution, and exposed on ice by a laser medical device “LD 680-2000” (wavelength: 670-690 nm) at a dose of 3.3 joule/cm^2. After 20-24 hours, the available cell monolayer was dispersed using a 0.02%-Versene solution, and the number of tumor cells was calculated in Goriaev's chamber. For each point, 3 flasks were used.
# Hela cells [3] = assay: Phototoxicity, 24 h incubation, 1.5-15 joule/cm^2; assay type: cell-based; details: 670-690 nm
# Description: In other experiment, the cells were incubated with photosensitizers at 37° C. for 24 hours, and irradiated by exposed on ice by a laser medical device “LD 680-2000” (wavelength of 670-690 nm) in a dose of 1.5-15 joule/cm^2.
Compound,affinity of the carrier (TRV) [1],concentration in Hela cells (Hela cells [2]; incubation time 1 hours),concentration in Hela cells (Hela cells [2]; incubation time 5 hours),concentration in Hela cells (Hela cells [2]; incubation time 10 hours),concentration in Hela cells (Hela cells [2]; incubation time 15 hours),concentration in Hela cells (Hela cells [2]; incubation time 24 hours),cell survival rates (HeLa tumor cells),"number of HELA cells (relative to the control) (HeLa cell culture; photoexposure 3.3 joule/cm^2, conc. 0.1 mcg/ml)","number of HELA cells (relative to the control) (HeLa cell culture; photoexposure 3.3 joule/cm^2, conc. 0.5 mcg/ml)","number of HELA cells (relative to the control) (HeLa cell culture; photoexposure 3.3 joule/cm^2, conc. 1.0 mcg/ml)","number of HELA cells (relative to the control) (HeLa cell culture; photoexposure 3.3 joule/cm^2, conc. 5.0 mcg/ml)","number of HELA cells (relative to the control) (HeLa cell culture; photoexposure 3.3 joule/cm^2, conc. 10.0 mcg/ml)",phototoxicity / photosensitivity in survival test (Hela cells [3])
"Nc1nc(O)c2nc(CNc3ccc(C(=O)N[C@@H](CCC(=O)O)C(=O)O)cc3)cnc2n1 [folic acid, N-[4(2-Amino-4-hydroxypteridin-6-ylmethylamino)benzoyl]-L(+)-glutamic acid]",about 200 μM,–,–,–,–,–,–,–,–,–,–,–,–
"C=Cc1c(C)c2cc3nc(c(CC(=O)O)c4[nH]c(cc5nc(cc1[nH]2)C(C)=C5CC)c(C)c4C(=O)O)C(CCC(=O)O)C3C (stereo not drawn) [chlorin e6, 13-carboxy-17-[2-carboxyethyl]-15-carboxymethyl-17,18-trans-dihydro-3-vinyl-8-ethyl-2,7,12,18-tetramethylporphyrin]",–,0.86 relative units/10^4cl.,1.45 relative units/10^4cl.,1.72 relative units/10^4cl.,0.81 relative units/10^4cl.,0.40 relative units/10^4cl.,about 90%,87.1,83.6,64.7,19,3.8,little phototoxicity
